Key:
[1] = Lung and serum levels after nebulized Compound 1 in mice (mass spectroscopy); assay type: in vivo
Method: The compound was administered with a nebulizer of (FIG. 1A). With a 9 cc Medication Nebulizer, a dose of liquid medicine was prepared to a final concentration of 5 ml (3 mg/mL). Treatment was for approximately 20-30 minutes until all liquid was delivered. […] The nebulizer includes a Hospital grade Schuco air compressor 100, Blue top medication nebulizer 110, Plastic collar 120, White elbow hose connector 130, 7′ crush proof 02 tubing to air compressor 140, and MPC Aerosol Pie Cage 150. Technical Specifications of the nebulizing system were as follows:
The pie cage 150 has 12 slots to hold 12 mice.
10 mice were divided into three trial groups:
Low dose group: 3 mice at 2 mg dose (˜5 mg/kg) Medium dose group: 3 mice at 5 mg dose (˜12 mg/kg) High dose group: 4 mice at 10 mg dose (˜35 mg/kg)
The mice were nebulized within their respective dosing group for fifteen minutes (starting with the lowest dosing and moving up to the highest). One mouse was sacrificed per group at 1 hour, 3 hours and 5 hours after the drug delivery (2 mice were sacrificed for the 10 mg dose group).
[…] were collected during sacrifice: upper and lower left lung, right lung, and serum. The order of sample collection was: first blood, then left lung, then right lung. Before removing the right lung, but after removing the left lung, the right lung was lavaged. The lung samples were immediately placed into liquid nitrogen and the blood samples rested for 4 hours at room temperature. After the blood clotted it was centrifuged and the serum was taken into a new tube. Lung and serum samples were then analyzed by mass spectroscopy.

[2] = Presence of aerosolized Compound 1 in lung of LPS-injured mice; assay type: in vivo, C57BL/6J mice; conditions: single aerosolized dose 35 mg/kg, one hour following nebulization
Method: (§1) MMP 9 was selected as a target as it is a well-established mediator of inflammation in lung injury. 12-week-old male C57BL/6J mice were intranasally instilled with LPS (1.5 mg/kg of 1 mg/ml solution in sterile PBS). 24 hours later, these mice received a single dose of aerosolized MMP inhibitor (Compound 1, dissolved in PBS, 35 mg/kg) or PBS alone. One hour following nebulization, the mice were sacrificed and assessed for MMP activity in both the bronchoalveolar lavage fluid (BALF) and lung tissue homogenate obtained from treated mice. One hour following nebulization of Compound 1, the presence of the aerosolized Compound 1 in the lung was confirmed at concentrations >100 ng/g of tissue. MMP activity in BALF was determined using a commercially available MMP 9 Quantikine assay from R&D systems.

[3] = test system: LPS injured mice; experiment: Lung injury (inflammation) score of H&E lung sections, LPS-injured mice, single inhaled dose; assay type: in vivo, C57BL/6J mice; conditions: LPS 1.5 mg/kg intranasal; 24 hours later single aerosolized dose 35 mg/kg; sacrifice one hour after; vs LPS alone p<0.001
Method: We next determined if inhaled Compound 1 attenuated specific features of acute inflammatory lung injury that were also observed in response to LPS. Again, 12-week-old male C57BL/6J mice were intranasally instilled with LPS (1.5 mg/kg of 1 mg/ml solution in sterile PBS). 24 hours later, these mice received a single dose of aerosolized MMP inhibitor (Compound 1, dissolved in PBS, 35 mg/kg) or PBS alone and a tail vein injection of FITC labeled albumin (FITC-albumin). One hour following nebulization, the mice were sacrificed. The left lung was fixed in formalin from each animal, paraffin embedded, sectioned and stained with H&E to examine histological features indicative of lung injury. These were achieved by visually scoring each slide based on a lung injury scoring system developed by the American Thoracic Society for animal models of inflammatory lung injury.

[4] = test system: neutrophils (PMN); experiment: BALF cell counts (cytospin, DifQuik), LPS-injured mice, single inhaled dose; assay type: in vivo; conditions: 1 hour following treatment
Method: Since substantial literature indicates neutrophils (PMN) are critical mediators of inflammatory damage in injured lung, we next assessed if inhaled Compound 1 attenuated PMN infiltration of LPS injured lungs. To achieve this, mice were injured with LPS and 24 h later received a single inhaled dose of Compound 1 and were sacrificed 1 hour after dosing. PMN infiltration was assessed by examining lung sections (qualitatively) and BALF (quantitatively) from Compound 1 treated and untreated mice. Quantitative examination was performed on BALF samples that were collected from each animal and subsequently subjected to cytospin centrifugation and DifQuik staining. The fraction of PMN present in each sample may be quantified by counting 300 cells of the inflammatory cell population across three different microscopic images. The obtained fraction may then be multiplied by the total cell count to estimate the number of PMNs present in the BALF.

[5] = test system: neutrophils; experiment: MTT assay of neutrophil viability; assay type: cell-based, human; conditions: 1 hour exposure, high and low concentrations
Method: To ensure the observed effects were not a result of reduced neutrophil viability, an MTT assay was utilized. Neutrophils were exposed to Compound 1 for 1 hour followed by addition of MTT to the culture medium for 30 minutes. Cells were then solubilized in DMSO and the absorbances were read on a microplate reader.

[6] = target: MMP 9 (Mus musculus, UniProt P41245); experiment: MMP 9 Quantikine assay on BALF of LPS-injured mice, single inhaled dose; assay type: in vivo, C57BL/6J mice; parameters: assessed for MMP activity in both the bronchoalveolar lavage fluid (BALF) and lung tissue homogenate obtained from treated mice; from tissue; host or cells: bronchoalveolar lavage fluid (BALF) of LPS-injured C57BL/6J mice; conditions: LPS 1.5 mg/kg intranasal; 24 hours later single aerosolized dose 35 mg/kg; sacrifice one hour after nebulization
Method: as §1

[7] = LPS treated mice, single inhaled dose

Sequence of MMP 9 (P41245 108-730): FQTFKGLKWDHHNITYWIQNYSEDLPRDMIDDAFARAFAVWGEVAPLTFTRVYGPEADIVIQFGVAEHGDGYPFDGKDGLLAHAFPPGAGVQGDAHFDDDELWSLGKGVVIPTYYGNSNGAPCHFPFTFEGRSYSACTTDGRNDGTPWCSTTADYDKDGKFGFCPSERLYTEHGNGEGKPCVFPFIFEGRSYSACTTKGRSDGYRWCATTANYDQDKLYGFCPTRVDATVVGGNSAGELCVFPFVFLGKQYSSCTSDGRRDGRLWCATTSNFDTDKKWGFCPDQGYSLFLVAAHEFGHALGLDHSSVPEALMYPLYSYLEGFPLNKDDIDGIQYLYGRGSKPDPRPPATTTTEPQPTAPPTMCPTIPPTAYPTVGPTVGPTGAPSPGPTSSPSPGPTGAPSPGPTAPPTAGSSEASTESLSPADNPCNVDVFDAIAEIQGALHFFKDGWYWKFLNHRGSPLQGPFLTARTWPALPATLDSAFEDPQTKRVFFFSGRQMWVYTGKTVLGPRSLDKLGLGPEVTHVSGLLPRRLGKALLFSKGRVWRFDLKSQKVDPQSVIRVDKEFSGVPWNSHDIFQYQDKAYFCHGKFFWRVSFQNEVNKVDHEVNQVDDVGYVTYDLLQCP

butanamide, N-hydroxy-2-[[(4-hydroxyphenyl)sulfonyl](3-pyridinylmethyl)amino]-3-methyl, hydrochloride, (2R) [Compound 1]
Mouse Lung MMI 270 ([1]; High Dose (10 mg, ~35 mg/kg, nebulized), 1 hour later, Left Lung Lower Lobe): 1415.95 ng/g | Mouse Lung MMI 270 ([1]; High Dose (10 mg, ~35 mg/kg, nebulized), 1 hour later, Right Lung Lower Lobe): 598.24 ng/g | Mouse Serum MMI 270 ([1]; High Dose (10 mg, ~35 mg/kg, nebulized), 1 hour later): 87.99 ng/mL | Mouse Lung MMI 270 ([1]; High Dose (10 mg, ~35 mg/kg, nebulized), 3 hour later, Left Lung Lower Lobe): 119.51 ng/g | Mouse Lung MMI 270 ([1]; High Dose (10 mg, ~35 mg/kg, nebulized), 3 hour later, Right Lung Lower Lobe): 50.75 ng/g | Mouse Serum MMI 270 ([1]; High Dose (10 mg, ~35 mg/kg, nebulized), 3 hour later): 7.93 ng/mL | Mouse Lung MMI 270 ([1]; High Dose (10 mg, ~35 mg/kg, nebulized), 5 hour later, Left Lung Lower Lobe): 70.67 ng/g | Mouse Lung MMI 270 ([1]; High Dose (10 mg, ~35 mg/kg, nebulized), 5 hour later, Right Lung Lower Lobe): 23.36 ng/g | Mouse Serum MMI 270 ([1]; High Dose (10 mg, ~35 mg/kg, nebulized), 5 hour later): 3.79 ng/mL | Mouse Lung MMI 270 ([1]; Low Dose (2 mg, ~5 mg/kg, nebulized), 1 hour later, Left Lung Lower Lobe): 102.10 ng/g | Mouse Lung MMI 270 ([1]; Low Dose (2 mg, ~5 mg/kg, nebulized), 1 hour later, Right Lung Lower Lobe): 155.55 ng/g | Mouse Serum MMI 270 ([1]; Low Dose (2 mg, ~5 mg/kg, nebulized), 1 hour later): 2.97 ng/mL | Mouse Lung MMI 270 ([1]; Low Dose (2 mg, ~5 mg/kg, nebulized), 3 hour later, Left Lung Lower Lobe): 42.92 ng/g | Mouse Lung MMI 270 ([1]; Low Dose (2 mg, ~5 mg/kg, nebulized), 3 hour later, Right Lung Lower Lobe): 12.60 ng/g | Mouse Serum MMI 270 ([1]; Low Dose (2 mg, ~5 mg/kg, nebulized), 3 hour later): <LLOQ | Mouse Lung MMI 270 ([1]; Low Dose (2 mg, ~5 mg/kg, nebulized), 5 hour later, Left Lung Lower Lobe): 13.21 ng/g | Mouse Lung MMI 270 ([1]; Low Dose (2 mg, ~5 mg/kg, nebulized), 5 hour later, Right Lung Lower Lobe): <LLOQ | Mouse Serum MMI 270 ([1]; Low Dose (2 mg, ~5 mg/kg, nebulized), 5 hour later): <LLOQ | Mouse Lung MMI 270 ([1]; Medium Dose (5 mg, ~12 mg/kg, nebulized), 1 hour later, Left Lung Lower Lobe): 465.18 ng/g | Mouse Lung MMI 270 ([1]; Medium Dose (5 mg, ~12 mg/kg, nebulized), 1 hour later, Right Lung Lower Lobe): 127.68 ng/g | Mouse Serum MMI 270 ([1]; Medium Dose (5 mg, ~12 mg/kg, nebulized), 1 hour later): 20.06 ng/mL | Mouse Lung MMI 270 ([1]; Medium Dose (5 mg, ~12 mg/kg, nebulized), 3 hour later, Left Lung Lower Lobe): 49.60 ng/g | Mouse Lung MMI 270 ([1]; Medium Dose (5 mg, ~12 mg/kg, nebulized), 3 hour later, Right Lung Lower Lobe): 18.92 ng/g | Mouse Serum MMI 270 ([1]; Medium Dose (5 mg, ~12 mg/kg, nebulized), 3 hour later): 3.40 ng/mL | Mouse Lung MMI 270 ([1]; Medium Dose (5 mg, ~12 mg/kg, nebulized), 5 hour later, Left Lung Lower Lobe): 26.04 ng/g | Mouse Lung MMI 270 ([1]; Medium Dose (5 mg, ~12 mg/kg, nebulized), 5 hour later, Right Lung Lower Lobe): 13.55 ng/g | Mouse Serum MMI 270 ([1]; Medium Dose (5 mg, ~12 mg/kg, nebulized), 5 hour later): <LLOQ | concentration of aerosolized Compound 1 in the lung [2]: > 100 ng/g of tissue | lung injury score (Inflammation Score) [3]: reduces the lung injury score | total PMN counts in the BALF ([4]; LPS then 24 h later single inhaled dose, n=5/group, p=0.01 (LPS/PBS 5.3×10^6)): 1.2×10^6 neutrophils/ml | macrophage count in the BALF [4, 7]: remained unchanged | overall cell count in BALF [4, 7]: significant reduction | neutrophil viability (MTT, reductive capacity) [5]: no significant effect on neutrophil viability | MMP 9 activity in BALF [6]: inhibits MMP 9 activity in the BALF

Source: patent US20220008401A1, “COMPOSITIONS AND METHODS FOR TREATING PULMONARY DISEASE WITH MATRIX METALLOPROTEINASE INHIBITORS” (DARSHA LLC, priority 2019, published 2022)
